# Source: patent US20100021989A1, “COMPOSITIONS AND METHODS OF CONTROLLING AND ADMINISTERING REDOX SPECIFIC FORMS OF DRUGS, FOODS AND DIETARY SUPPLEMENTS” (priority 2008, published 2010)
# Like-named read-outs stand apart in the source and are kept apart here.
# Assays:
# [1] = system: multidrug-resistant strain (33591) of Staphylococcus aureus; assay: Antibacterial assay, pre-incubation then colony-forming units counted; format: cell-based; conditions: for Killing of bacteria (cfu): 0.08% EGCG
# Experimental: Antibacterial activity: EGCG was tested as an antibacterial agent against a multidrug-resistant strain (33591) of Staphylococcus aureus. After pre-incubating the cells with various concentrations of EGCG at pH 6, 7.5, and 8.5, cells were plated and colony-forming units (cfu) were counted as a measure of efficacy (FIG. 12).
# [2] = cited from earlier work
# HSV-2 (herpes simplex 2) = assay: Antiviral drug screen of EGCG, HSV-2; format: cell-based
# [3] = system: VZV (varicella zoster virus); assay: Antiviral drug screen of EGCG, VZV; format: cell-based
# [4] = format: physicochemical
# Source text: UV-Visible Absorption Spectra vs. pH: EGCG solutions undergo an immediate spectral absorption shift as the pH increases from acidic to alkaline, with a change noted at pH 7 when a peak at 320 nm appears and the dominant phenol peak at 272 nm begins to decrease (FIG. 3A). The 320 nm peak likely represents the absorbance of the quinone form of EGCG. […] However, if the alkaline solution is re-acidified within minutes, the reaction is reversible. […] EPR vs. pH study of EGCG: The EPR and UV-visible spectra of EGCG, stabilized with 0.2 M MgCl2, were measured as a function of pH (i.e., 6.03, 6.54, 7.03, 7.57, 8.09, 8.56, 9.10, 9.56). A corresponding increase in a peak at ˜314 nm and a g=2 EPR spectrum occurred with increasing pH. […] This is in agreement with the known stabilizing effect on semiquinone free radicals by divalent cations like Mg^+2. […] The multiple peaks and valleys in FIGS. 5a and 5b are the fine structure detail of a high concentration radical solution. EPR detects unpaired spinning electrons due to the absorption of microwaves in an applied magnetic field. The peak splitting is due to interaction of the lone electron's spin magnetic field with environmental magnetic fields. […]
# HSV-1 = HSV-1 inactivation: virus mixed with compound, infectivity titrated on Vero cells (reduction of virus titer); format: cell-based, herpes simplex virus 1; conditions: varying pH
# Experimental: (§1) Experimental—HSV-1 and 2: Herpes simplex viruses were titrated by inoculation of 10-fold dilutions (HSV-1 was inoculated into Vero cell cultures, and HSV-2 was inoculated into CV1 cultures) in 96-well microtiter tissue culture plates. A virus dilution (0.1 ml) in RPMI 1640 with 1% fetal bovine serum (MM) was inoculated into each well with three wells per dilution. The plates were kept for 2 to 5 days, depending on the virus, and examined daily for cytopathic effect. Virus titers were calculated by the method of Reed and Muench (1938).
# (§2) About 10^5 50% tissue culture infective doses (TCID50s) of virus were mixed with varying concentrations (12.5, 25, 50, 75 and 100 μM) of reduced and oxidized EGCG in MM and incubated at 37° C. for 30 min. The following samples were tested: The reduced form of EGCG (#1); the partially oxidized form of EGCG (#2); the quinone or fully oxidized form of EGCG with the addition of a copper catalyst (#3); and quinone or fully oxidized form of EGCG with the addition of a zinc catalyst (#4). In Samples #3 and #4, the addition of the copper and zinc catalysts, respectively, raised the pH to 9.0-9.5. These compounds were totally oxidized, thereby taking a quinone form. […]
# (§3) Virus mixed with MM alone was used as a control. […] The 10^−1 to 10^−5 dilutions were inoculated into monolayers of Vero or CV1 cells, and the virus titers were determined as described above. […]
# [5] = pH 7.4; cited from earlier work
# HSV-1 (herpes simplex 1) = assay: Antiviral drug screen of EGCG, HSV-1; format: cell-based
# [6] = system: HCMV (human cytomegalovirus); assay: Antiviral drug screen of EGCG, HCMV; format: cell-based
# Bcl-xL = Bcl-xL (Homo sapiens, UniProt Q07817); conditions: Kitada et al., 2003; cited from earlier work
# Chain of Bcl-xL (Q07817 whole entry): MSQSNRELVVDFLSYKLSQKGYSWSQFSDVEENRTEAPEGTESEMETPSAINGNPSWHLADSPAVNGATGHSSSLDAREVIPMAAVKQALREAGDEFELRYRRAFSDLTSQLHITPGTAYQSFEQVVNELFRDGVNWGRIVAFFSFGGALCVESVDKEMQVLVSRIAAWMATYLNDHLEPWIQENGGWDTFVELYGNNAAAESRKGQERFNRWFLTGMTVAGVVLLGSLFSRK
# HSV-2 = HSV-2 inactivation: virus mixed with compound, infectivity titrated on CV1 cells (reduction of virus titer); format: cell-based, herpes simplex virus 2; conditions: varying pH
# Experimental: as §1, §2, §3
# [7] = format: physicochemical; remark: listed apart in the source
# Source text: An electrochemical cell was fabricated using a fine porosity glass frit in one-inch-diameter glass tubing. The electrochemical cell houses the counter electrode and keeps the Ag/AgCl reference electrode and platinum working electrode separate from the counter electrode. This addition to the system allowed the preparation of bulk solution. The working electrode and reference electrode compartment was continuously stirred using a small stir bar and a magnetic stirrer to minimize gradient effects at the working electrode. The EGCG solutions were oxidized using a positive potential to a visual end point. UV-visible spectral data were collected during these experiments, including the absorbance at 270 nm and 320 nm, corresponding to the phenol and quinone forms of EGCG, respectively. In addition, the open cell potential was recorded as experiments progressed. The active redox potentials and experimental endpoints were determined based on current and visual color changes to oligomers. Due to solution evaporation over time, the ratio of absorbance at 320 nm divided by the absorbance at 270 nm was determined in order to account for overall absorption increases. […] In addition, the visual change in solution color from clear to yellow and pink was also monitored as an indicator of degree of oxidation. Stirred EGCG solutions in 0.1 M phosphate buffer with 0.1 M KCl at pH 6.0 were monitored. The open circuit potential was initially 220 mV. […] A duplicate solution was left uncovered on the table next to the electrochemical cell as the control. After seven hours, no change in either solution at 270 and 320 nm was found. At this point the experimental potential was increased to 1000 mV for a further 16 hours (Table 3A). […] The pH of the solutions remained 6.0 throughout the experiment. All data support the forced oxidation of EGCG at pH 6.0. Solutions were allowed to sit for two more days to observe the stability of the electrochemically-induced changes (Table 3C). Solutions were pH-modified following electrochemical oxidation to observe stability. […] These samples were open to air, and no other precautions were taken to prevent oxidation by atmospheric oxygen.
# Vero cells = assay: Toxicity to Vero cells, Cell Titer 96 Aqueous Cell Proliferation Assay
# [8] = Toxicity, Neutral Red Uptake; conditions: host cells
# [9] = cyclic voltammetry (Kilmartin and Hsu, 2003)
# [10] = Control (no potential), pH 6.0, 43 hours
# [11] = Control (no potential), pH 6.0, 55 hours
# [12] = Control (no potential), pH 6.0, 68 hours
# [13] = Control (no potential, uncovered), pH 6.0, 23 hours
# [14] = Experiment, pH 6.0, 800 mV 7 h then 1000 mV 16 h, 23 hours
# [15] = Experiment, pH 6.0, 1500 mV from 23 h, 43 hours
# [16] = Experiment, pH 6.0, 1500 mV from 23 h, 55 hours
# [17] = Experiment, pH 6.0, 1500 mV from 23 h, 68 hours
# [18] = Experiment, pH 6.0, left to sit after electrochemical oxidation, 73 hours
# [19] = Experiment, pH 6.0, left to sit after electrochemical oxidation, 79 hours
# [20] = Experiment, pH 6.0, left to sit after electrochemical oxidation, 120 hours
molecule,measurement,setting,value
"O=C(O[C@@H]1Cc2c(O)cc(O)cc2O[C@@H]1c1cc(O)c(O)c(O)c1)c1cc(O)c(O)c(O)c1 [EGCG, (−)-Epigallocatechingallate]",Killing of bacteria (cfu),[1]; pH 7.5,effective at killing nearly all the bacteria
same,Killing of bacteria (cfu),[1]; pH 8.5,effective at killing nearly all the bacteria
same,Bactericidal effect (cfu),"[1]; 0.4-0.8% EGCG, pH 6, 7.5 and 8.5",strongly bactericidal
same,Effectiveness (cfu),[1]; concentrations higher than 0.4-0.8% EGCG,less effective
same,"CC50, TOXICITY Neutral Red Uptake",host cells,CC50 > 200
same,"Oxidation peak potential, first range",[2]; [9],105 mV
same,"Oxidation peak potential, second range",[2]; [9],213 mV
same,Reduction potential,"[2]; pH 7, versus a normal hydrogen electrode",430 mV
same,EC-50,HSV-2 (herpes simplex 2); HSV-2,7.6 µg/mL
same,EC-90,HSV-2 (herpes simplex 2); HSV-2,98.6 µg/mL
same,CC-50,HSV-2 (herpes simplex 2); cytotoxicity in HSV-2 screen,857 µg/mL
same,EC-50,[3]; VZV,4.1 µg/mL
same,EC-90,[3]; VZV,>40 µg/mL
same,CC-50,[3]; cytotoxicity in VZV screen,>40 µg/mL
same,Stability of 320 nm oxidation peak,[4],disappears within hours
same,Decay time of semiquinone EPR signal,"[4]; after basification, 0.2 M MgCl2, no electrochemical modulation",30 min
same,Effect of pH on activity against HSV-1 (FIG. 9),HSV-1,greater antiviral activity at the more alkaline pH's
same,Time to complete degradation,[5],6 h
same,EC-50,HSV-1 (herpes simplex 1); HSV-1,24.1 µg/mL
same,EC-90,HSV-1 (herpes simplex 1); HSV-1,121 µg/mL
same,CC-50,HSV-1 (herpes simplex 1); cytotoxicity in HSV-1 screen,857 µg/mL
same,EC-50,[6]; HCMV,6.9 µg/mL
same,EC-90,[6]; HCMV,40 µg/mL
same,CC-50,[6]; cytotoxicity in HCMV screen,>40 µg/mL
same,Ki,Bcl-xL,nanomolar range
same,Effect of pH on activity against HSV-2 (FIG. 9),HSV-2,greater antiviral activity at the more alkaline pH's
same,"Open circuit potential, initial","[7]; 0.1 M phosphate buffer with 0.1 M KCl, pH 6.0",220 mV
same,320 nm/270 nm,[7]; [10],0.174
same,Absorbance 270 nm,[7]; [10],0.448
same,Absorbance 320 nm,[7]; [10],0.078
same,320 nm/270 nm,[7]; [11],0.178
same,Absorbance 270 nm,[7]; [11],0.471
same,Absorbance 320 nm,[7]; [11],0.084
same,320 nm/270 nm,[7]; [12],0.189
same,Absorbance 270 nm,[7]; [12],0.438
same,Absorbance 320 nm,[7]; [12],0.083
same,320 nm/270 nm,[7]; [13],0.170
same,Absorbance 270 nm,[7]; [13],0.424
same,Absorbance 320 nm,[7]; [13],0.072
same,320 nm/270 nm,[7]; [14],0.256
same,Absorbance 270 nm,[7]; [14],0.418
same,Absorbance 320 nm,[7]; [14],0.107
same,320 nm/270 nm,[7]; [15],0.396
same,Absorbance 270 nm,[7]; [15],0.432
same,Absorbance 320 nm,[7]; [15],0.171
same,320 nm/270 nm,[7]; [16],0.467
same,Absorbance 270 nm,[7]; [16],0.422
same,Absorbance 320 nm,[7]; [16],0.197
same,320 nm/270 nm,[7]; [17],0.522
same,Absorbance 270 nm,[7]; [17],0.429
same,Absorbance 320 nm,[7]; [17],0.224
same,320 nm/270 nm,[7]; [18],0.533
same,Absorbance 270 nm,[7]; [18],0.430
same,Absorbance 320 nm,[7]; [18],0.229
same,320 nm/270 nm,[7]; [19],0.538
same,Absorbance 270 nm,[7]; [19],0.426
same,Absorbance 320 nm,[7]; [19],0.229
same,320 nm/270 nm,[7]; [20],0.546
same,Absorbance 270 nm,[7]; [20],0.436
same,Absorbance 320 nm,[7]; [20],0.238
same,Stability of electrochemically oxidized solution (320 nm absorbance),[7]; pH 6,stable for over two days
same,Oxidation of control sample,"[7]; pH 6.0, no potential, uncovered, 23 hours",did not oxidize
same,Stability of pH-modified solution after electrochemical oxidation (FIG. 14),[7]; pH 6.26,relatively stable after 7 days
O=C(O[C@@H]1Cc2c(O)cc(O)cc2O[C@@H]1c1cc(O)c(O)c(O)c1)c1cc(O)c(O)c(O)c1 [Reduced EGCG],"Cell Titer 96 assay reading, mean ± SD","Vero cells; 50 μM, 24 hours after addition",0.753 ± 0.027
same,"Cell Titer 96 assay reading, mean ± SD","Vero cells; 50 μM, 48 hours after addition",0.750 ± 0.033
same,"Cell Titer 96 assay reading, mean ± SD","Vero cells; 75 μM, 24 hours after addition",0.685 ± 0.052
same,"Cell Titer 96 assay reading, mean ± SD","Vero cells; 75 μM, 48 hours after addition",0.706 ± 0.026
same,"Cell Titer 96 assay reading, mean ± SD","Vero cells; 100 μM, 24 hours after addition",0.700 ± 0.043
same,"Cell Titer 96 assay reading, mean ± SD","Vero cells; 100 μM, 48 hours after addition",0.705 ± 0.019
epicatechin-3 gallate [ECG],Ki,Bcl-xL,nanomolar range
Nc1nc2c(ncn2COCCO)c(=O)[nH]1 [ACV],CC50,[8],> 100 µg/mL
"O=C(O[C@@H]1Cc2c(O)cc(O)cc2O[C@H]1c1ccc(O)c(O)c1)c1cc(O)c(O)c(O)c1 [CG, catechin-3 gallate]",Ki,Bcl-xL,nanomolar range
"O=C(O[C@@H]1Cc2c(O)cc(O)cc2O[C@H]1c1cc(O)c(O)c(O)c1)c1cc(O)c(O)c(O)c1 [GCG, gallocatechin-3 gallate]",Ki,Bcl-xL,nanomolar range
